Earlier results in patent US6890568B2, “Method for management of blood glucose levels” (priority 1999, dated 2005).

Test system: insulin-deficient, streptozotocin-induced rat model of diabetes
Details: vanadate in the drinking water

[O]=[V]([O-])([O-])[O-] [vanadate]
control of diabetes: shown to control diabetes
side effects: life-threatening diarrhea
